This note sets out measurements from PubChem BioAssay (NCI).

The structures appear in SMILES notation.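 Each compound was tested at five concentrations against cells in 96-well plates for 48 hours. At the TGI there is no net growth.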 Bounds are passed on as bounds.

The subject of the first experiment is HOP-62 NSCLC. Put plainly: NCI-60 cell line screen, 48 h.
Regarding `CN(CC1(CO)CCC1)c1cc(Cl)nc(N)n1`, the TGI was above 100 µM.
Still for that read-out and setting: next, `COc1cc(C=C2C(C)=NN(c3cccc(Cl)c3)C23SCC(=O)N3c2nc3ccccc3s2)ccc1O` (stereo not drawn): 91.5 µM; `CC[C@H]1C=CCC[C@@]2(C[C@@H]3CC[C@@H]4[C@H](C(=O)OCCCCCCCCCCCCCCCC(=O)O)[C@]5(CCC[C@@H](C)O5)NC(=[N+]34)N2)O1`: 3.6 µM.
Compound `CCOC(=O)c1c2c(n3ccccc13)C(=O)c1ccccc1C2=O` yielded a TGI above 100 µM.

For another experiment, the system named is ACHN renal. In words: NCI-60 cell line screen, 48 h.
As for `CN(CC1(CO)CCC1)c1cc(Cl)nc(N)n1`, the TGI is above 100 µM.
On the same count and under the same terms, next, `COc1cc(C=C2C(C)=NN(c3cccc(Cl)c3)C23SCC(=O)N3c2nc3ccccc3s2)ccc1O` (stereo not drawn): 77.5 µM; `CC[C@H]1C=CCC[C@@]2(C[C@@H]3CC[C@@H]4[C@H](C(=O)OCCCCCCCCCCCCCCCC(=O)O)[C@]5(CCC[C@@H](C)O5)NC(=[N+]34)N2)O1`: 1.89 µM; `CCOC(=O)c1c2c(n3ccccc13)C(=O)c1ccccc1C2=O`: above 100 µM.

Another experiment deals with HS 578T breast. In words: NCI-60 cell line screen, 48 h.
Compound `CN(CC1(CO)CCC1)c1cc(Cl)nc(N)n1` had a TGI above 100 µM.
Same read-out and setting: with `COc1cc(C=C2C(C)=NN(c3cccc(Cl)c3)C23SCC(=O)N3c2nc3ccccc3s2)ccc1O` (stereo not drawn) the figure was 32.4 µM.
Compound `CC[C@H]1C=CCC[C@@]2(C[C@@H]3CC[C@@H]4[C@H](C(=O)OCCCCCCCCCCCCCCCC(=O)O)[C@]5(CCC[C@@H](C)O5)NC(=[N+]34)N2)O1` showed a TGI of 2.13 µM.
`CCOC(=O)c1c2c(n3ccccc13)C(=O)c1ccccc1C2=O` came in with a TGI above 100 µM.

In the next experiment the test system is SK-OV-3 ovarian. In words: NCI-60 cell line screen, 48 h.
As to `CN(CC1(CO)CCC1)c1cc(Cl)nc(N)n1`, the TGI is above 100 µM.
Same read-out and setting: with `COc1cc(C=C2C(C)=NN(c3cccc(Cl)c3)C23SCC(=O)N3c2nc3ccccc3s2)ccc1O` (stereo not drawn) the figure was 50.8 µM.
Same read-out and setting: with `CC[C@H]1C=CCC[C@@]2(C[C@@H]3CC[C@@H]4[C@H](C(=O)OCCCCCCCCCCCCCCCC(=O)O)[C@]5(CCC[C@@H](C)O5)NC(=[N+]34)N2)O1` the figure was 11.8 µM.
In the case of `CCOC(=O)c1c2c(n3ccccc13)C(=O)c1ccccc1C2=O`, the TGI is above 100 µM.

In another experiment the test system is HL-60(TB) leukemia. Put plainly: NCI-60 cell line screen, 48 h.
`CN(CC1(CO)CCC1)c1cc(Cl)nc(N)n1` showed a TGI above 100 µM.
In turn, `COc1cc(C=C2C(C)=NN(c3cccc(Cl)c3)C23SCC(=O)N3c2nc3ccccc3s2)ccc1O` (stereo not drawn) gave a TGI of 26.7 µM.
`CC[C@H]1C=CCC[C@@]2(C[C@@H]3CC[C@@H]4[C@H](C(=O)OCCCCCCCCCCCCCCCC(=O)O)[C@]5(CCC[C@@H](C)O5)NC(=[N+]34)N2)O1` showed a TGI of 0.636 µM.
With `CCOC(=O)c1c2c(n3ccccc13)C(=O)c1ccccc1C2=O`, the TGI was above 100 µM.

A further experiment relates to SK-MEL-5 melanoma. In words: NCI-60 cell line screen, 48 h.
For `CN(CC1(CO)CCC1)c1cc(Cl)nc(N)n1`, the TGI is above 100 µM.
`COc1cc(C=C2C(C)=NN(c3cccc(Cl)c3)C23SCC(=O)N3c2nc3ccccc3s2)ccc1O` (stereo not drawn) displayed a TGI of 40.7 µM.
In turn, `CC[C@H]1C=CCC[C@@]2(C[C@@H]3CC[C@@H]4[C@H](C(=O)OCCCCCCCCCCCCCCCC(=O)O)[C@]5(CCC[C@@H](C)O5)NC(=[N+]34)N2)O1` yielded a TGI of 0.251 µM.
Regarding `CCOC(=O)c1c2c(n3ccccc13)C(=O)c1ccccc1C2=O`, the TGI is above 100 µM.

The next experiment relates to BT-549 breast. In words: NCI-60 cell line screen, 48 h.
Compound `CN(CC1(CO)CCC1)c1cc(Cl)nc(N)n1` had a TGI above 100 µM.
Same read-out and setting: next, `COc1cc(C=C2C(C)=NN(c3cccc(Cl)c3)C23SCC(=O)N3c2nc3ccccc3s2)ccc1O` (stereo not drawn): 58.8 µM; `CC[C@H]1C=CCC[C@@]2(C[C@@H]3CC[C@@H]4[C@H](C(=O)OCCCCCCCCCCCCCCCC(=O)O)[C@]5(CCC[C@@H](C)O5)NC(=[N+]34)N2)O1`: 6.9 µM.
The same measure, in the same setting: next, `CCOC(=O)c1c2c(n3ccccc13)C(=O)c1ccccc1C2=O`: above 100 µM.

The next experiment relates to HOP-92 NSCLC. In words: NCI-60 cell line screen, 48 h.
In turn, `CN(CC1(CO)CCC1)c1cc(Cl)nc(N)n1` returned a TGI above 100 µM.
On the same count and under the same terms, next, `COc1cc(C=C2C(C)=NN(c3cccc(Cl)c3)C23SCC(=O)N3c2nc3ccccc3s2)ccc1O` (stereo not drawn): 45.4 µM; `CC[C@H]1C=CCC[C@@]2(C[C@@H]3CC[C@@H]4[C@H](C(=O)OCCCCCCCCCCCCCCCC(=O)O)[C@]5(CCC[C@@H](C)O5)NC(=[N+]34)N2)O1`: 0.615 µM; `CCOC(=O)c1c2c(n3ccccc13)C(=O)c1ccccc1C2=O`: above 100 µM.

Another experiment relates to SK-MEL-2 melanoma. In words: NCI-60 cell line screen, 48 h.
`CN(CC1(CO)CCC1)c1cc(Cl)nc(N)n1` registered a TGI above 100 µM.
On the same count and under the same terms, with `COc1cc(C=C2C(C)=NN(c3cccc(Cl)c3)C23SCC(=O)N3c2nc3ccccc3s2)ccc1O` (stereo not drawn) the figure was 39.5 µM.
Same read-out and setting: with `CC[C@H]1C=CCC[C@@]2(C[C@@H]3CC[C@@H]4[C@H](C(=O)OCCCCCCCCCCCCCCCC(=O)O)[C@]5(CCC[C@@H](C)O5)NC(=[N+]34)N2)O1` the figure was 0.347 µM; with `CCOC(=O)c1c2c(n3ccccc13)C(=O)c1ccccc1C2=O`, above 100 µM.

Another experiment relates to OVCAR-3 ovarian. In words: NCI-60 cell line screen, 48 h.
`CN(CC1(CO)CCC1)c1cc(Cl)nc(N)n1` gave a TGI above 100 µM.
Same read-out and setting: next, `COc1cc(C=C2C(C)=NN(c3cccc(Cl)c3)C23SCC(=O)N3c2nc3ccccc3s2)ccc1O` (stereo not drawn): above 80.1 µM; `CC[C@H]1C=CCC[C@@]2(C[C@@H]3CC[C@@H]4[C@H](C(=O)OCCCCCCCCCCCCCCCC(=O)O)[C@]5(CCC[C@@H](C)O5)NC(=[N+]34)N2)O1`: 5.83 µM; `CCOC(=O)c1c2c(n3ccccc13)C(=O)c1ccccc1C2=O`: above 100 µM.

Another experiment has as its system MALME-3M melanoma. In words: NCI-60 cell line screen, 48 h.
`CN(CC1(CO)CCC1)c1cc(Cl)nc(N)n1` came in with a TGI above 100 µM.
The same measure, in the same setting: next, `COc1cc(C=C2C(C)=NN(c3cccc(Cl)c3)C23SCC(=O)N3c2nc3ccccc3s2)ccc1O` (stereo not drawn): 47.6 µM; `CC[C@H]1C=CCC[C@@]2(C[C@@H]3CC[C@@H]4[C@H](C(=O)OCCCCCCCCCCCCCCCC(=O)O)[C@]5(CCC[C@@H](C)O5)NC(=[N+]34)N2)O1`: 0.423 µM; `CCOC(=O)c1c2c(n3ccccc13)C(=O)c1ccccc1C2=O`: above 100 µM.

For a further experiment, the system named is SNB-75 CNS. In words: NCI-60 cell line screen, 48 h.
The compound `CN(CC1(CO)CCC1)c1cc(Cl)nc(N)n1` returned a TGI above 100 µM.
On to `CCOC(=O)c1c2c(n3ccccc13)C(=O)c1ccccc1C2=O`, for which the TGI was determined as 74.6 µM.

The subject of the next experiment is OVCAR-4 ovarian. In words: NCI-60 cell line screen, 48 h.
In turn, `CN(CC1(CO)CCC1)c1cc(Cl)nc(N)n1` came in with a TGI above 100 µM.
Compound `COc1cc(C=C2C(C)=NN(c3cccc(Cl)c3)C23SCC(=O)N3c2nc3ccccc3s2)ccc1O` (stereo not drawn) gave a TGI above 100 µM.
The same measure, in the same setting: next, `CC[C@H]1C=CCC[C@@]2(C[C@@H]3CC[C@@H]4[C@H](C(=O)OCCCCCCCCCCCCCCCC(=O)O)[C@]5(CCC[C@@H](C)O5)NC(=[N+]34)N2)O1`: 6.47 µM; `CCOC(=O)c1c2c(n3ccccc13)C(=O)c1ccccc1C2=O`: above 100 µM.

For the next experiment, the system named is HCC-2998 colon. In words: NCI-60 cell line screen, 48 h.
In turn, `CN(CC1(CO)CCC1)c1cc(Cl)nc(N)n1` gave a TGI above 100 µM.
Still for that read-out and setting: with `COc1cc(C=C2C(C)=NN(c3cccc(Cl)c3)C23SCC(=O)N3c2nc3ccccc3s2)ccc1O` (stereo not drawn) the figure was above 83.5 µM; with `CC[C@H]1C=CCC[C@@]2(C[C@@H]3CC[C@@H]4[C@H](C(=O)OCCCCCCCCCCCCCCCC(=O)O)[C@]5(CCC[C@@H](C)O5)NC(=[N+]34)N2)O1`, 0.283 µM.
Still for that read-out and setting: with `CCOC(=O)c1c2c(n3ccccc13)C(=O)c1ccccc1C2=O` the figure was 7.59 µM.

The test system of another experiment is SK-MEL-28 melanoma. Put plainly: NCI-60 cell line screen, 48 h.
`CN(CC1(CO)CCC1)c1cc(Cl)nc(N)n1` gave a TGI above 100 µM.
On the same count and under the same terms, with `COc1cc(C=C2C(C)=NN(c3cccc(Cl)c3)C23SCC(=O)N3c2nc3ccccc3s2)ccc1O` (stereo not drawn) the figure was above 100 µM.
The compound `CC[C@H]1C=CCC[C@@]2(C[C@@H]3CC[C@@H]4[C@H](C(=O)OCCCCCCCCCCCCCCCC(=O)O)[C@]5(CCC[C@@H](C)O5)NC(=[N+]34)N2)O1` yielded a TGI of 5.3 µM.
On the same count and under the same terms, with `CCOC(=O)c1c2c(n3ccccc13)C(=O)c1ccccc1C2=O` the figure was above 100 µM.
